Experimental data: patent US20050267016A1, “CD-10 activated prodrug compounds” (priority 2001, published 2005)
Several values for one entry are separate records, joined by “and”; a condition that tells them apart may be missing. Equal values may be shown once. Read-outs that look alike come from different tables or passages of the source. Marks after values point to notes of the source that are not given here.

Legend:
[1] = tested on: Porcine Kidney CD10; test: Hydrolysis by purified CD10; format: biochemical
Method: Reaction products were analyzed by HPLC with fluorescence detection. Rates were essentially linear over the incubation period. The observed product was Leu-doxorubicin.

[2] = tested on: LNCaP (prostate carcinoma) cells; conditions: ratio of IC50
Method: (§1) Adherent cells, LNCaP (prostate carcinoma), HT-29 (colon carcinoma) and PC-3 (prostate carcinoma), were cultured in DMEM media containing 10% heat inactivated fetal calf serum (FCS). On the day of the study the cells were detached from the plate with a trypsin solution. The collected cells were washed and resuspended at a concentration of 0.25×10^6 cells/ml in DMEM containing 10% FCS. 100 μl of cell suspension were added to 96 well plates and the plates were incubated for 3 hours to allow the cells to adhere. […] The plates were then incubated for 24 hours, pulsed with 10 μl of a 100 μCi/ml ^3H-thymidine and incubated for an additional 24 hours (total incubation time 48 hours). The plates were harvested using a 96 well Harvester (Packard Instruments) and counted on a Packard Top Count Counter. Four parameter logistic curves were fitted to the ^3H-thymidine incorporation as a function of drug molarity using Prism software to determine IC50 values.
as §1, with “carcinoma), PC-3 (prostate” for “carcinoma), HT-29 (colon”, “and 22 RV1” for “and PC-3”, “with 1:0” for “with 10”
(§2) The effect of two known inhibitors of CD10 on prodrug activity in Ramos, LNCaP and Ball-1 cells was evaluated. The IC50 of Suc-βAla-Ile-Ala-Leu-Dox was determined in the presence of increasing concentration of the CD10 inhibitors, phosphoramidon and thiorphan.

[3] = tested on: Ramos cells (CD10pos); test: cells
Method: (§3) Suspension cells, BALL-1, Ramos and Namalwa cells were cultured in RPMI media containing 10% heat inactivated fetal calf serum (FCS). On the day of the study, the cells were collected, washed and resuspended at a concentration of 0.5×10^6 cells/ml in RPMI containing 10% FCS. 100 µl of cell suspension was added to 96 well plates. […] Finally 10 μl of a 100 μCi/ml ^3H-thymidine was added per well and the plates were incubated for 24 hours. The plates were harvested using a 96 well Harvester (Packard Instruments) and counted on a Packard Top Count counter. Four parameter logistic curves were fitted to the ^3H-thymidine incorporation as a function of drug molarity using Prism software to determine IC50 values.
as §2

[4] = tested on: Namalwa cells (CD10pos); test: cells; format: cell-based; conditions: ratio of IC50
Method: as §3

[5] = tested on: LNCaP human prostate carcinoma xenografts
Method: LNCaP human prostate carcinoma cells express high levels of CD10 on the surface. Suc-βAla-Leu-Ala-Leu-Dox and Suc-Leu-Ala-Gly-Dox were tested at a single dose level Q7Dx5. […] The mice were weighed and tumors were measured (by caliper) at least once a week prior to start of dosing (Day 0), then twice a week during the study. Immediately before the start of dosing (Study Day −2 to Day 0), mice were randomized to various groups based on the weight of the tumors. […] Mice were euthanized after the tumors reached a cutoff weight of 1.5 g (cancer endpoint), or when mice suffered over 25% weight loss (toxic endpoint). Studies were terminated at Day 60.

[6] = tested on: human colon carcinoma (HT-29) xenograft
Source text: Healthy young male nude mice were subcutaneously injected with 5 million of HT-29 cells.

[7] = tested on: LNCaP xenografts; test: LNCaP xenograft in SCID mice, Q6DX2, equitoxic comparison (Example 27); format: in vivo, C.B-17.SCID mice
Method: All compounds except Suc-βAla-Leu-Ala-Leu-Dox (three levels) were dosed at two levels with the goal to get a dose response for all compounds.
Knowing that the LNCaP tumor bearing nude mice have weight loss, we chose very conservative dose levels for each compound estimated to be well-tolerated equitoxic doses based on earlier studies and SD-MTD results. The high dose level for repeat dosing is usually 80% of their SD-MTD, and the low dose level is 80% of the high dose level. Accordingly, groups of ten male CD17.SCID mice, subcutaneously injected with 2.5 million LNCaP cells, were treated intravenously with the compounds at the levels described in Table 22 at six day intervals for a total of two identical doses (Q6DX2).
LNCaP tumors grew well in SCID mice, but the SCID mice with LNCaP tumor xenografts experienced severe weight loss, as 80% of control mice had more than 25% of weight loss by the end of the study. Nevertheless, the efficacy of different treatments at approximately equitoxic levels were compared based on the time it took for 50% of mice to reach toxic weight loss and the total numbers of mice with toxic weight loss at the end of study.

[8] = tested on: Parental CHO cells; test: Conversion to Leu-Dox or Gly-Dox in cell supernatants, parental CHO; format: cell-based, Chinese Hamster; conditions: 10 μM, 37° C.
Method: (§4) To directly ask the question of whether the CD10 expressing cells were capable of cleaving the prodrug, supernatants from CD10 transfected or parental CHO cells treated with the compounds were collected. […] After incubation for 1, 4, and 24 hours, an aliquot of each supernatant was transferred to a 96-well plate and frozen at −20° C. Samples were subsequently thawed and analyzed by reversed phase HPLC (4.6×50 mm 21 TSK Super-ODS column) with fluorescence detection after dilution with 3 volumes of acetonitrile, removal of precipitate by centrifugation, and further dilution into 3 volumes of water. When incubated with Suc-βAla-Leu-Ala-Leu-Dox, there was no detectable metabolism to Leu-Dox observed with the parental cell line while clone 8 (CD10 transfected) generated significant levels of Leu-Dox from Suc-βAla-Leu-Ala-Leu-Dox (Table 27).

[9] = tested on: CD10 transfected CHO cells (clone 8); test: Conversion to Leu-Dox or Gly-Dox in cell supernatants, CD10 transfected CHO; format: cell-based, Chinese Hamster; conditions: Clone 8 (CD10 transfected), 10 μM, 37° C.
Method: as §4

[10] = tested on: LNCaP prostate carcinoma xenograft; test: LNCaP prostate carcinoma xenograft in nude mice, Q7D × 3 (Examples 30, 31)
Method: In this model, 7.5 million LNCaP cells resuspended in 0.1 ml of phosphate buffered saline and 0.1 ml of Matrigel (Becton Dickinson) were injected into the side of male nude mice fed on high fat diet.

[11] = mouse, in vivo, iv, 100 umol/kg
Method: (§5) Plasma was obtained from three individual animals in each group at 5 minutes, 1, 2, 4, or 6 hr.

[12] = mouse, in vivo, iv, 100 umol/kg; remark: listed apart in the source
Method: as §5

[13] = Metabolism and clearance in normal mice (plasma and urine, LC MS/MS); format: in vivo; conditions: mouse, in vivo; for dose excreted: iv, 117 mg/kg
Method: The metabolism and clearance of Suc-Ile-Ala-Leu-Dox was studied in normal mice. The mice were administered Suc-Ile-Ala-Leu-Dox at a single intravenous bolus dose of 117 mg/kg. Plasma samples were obtained at 1 and 4 hours. Plasma samples of 100 μl were transferred to microcentrifuge tubes (1.5 mL) and an internal standard of daunorubicin (20 μL at 0.5 mg/ml) was added together with acetonitrile (400 μl). The tubes were capped and briefly vortexed followed by centrifugation at 14,000 rpm. 420 μl from each tube was removed and dried in vacuo. Each sample was reconstituted in 65 μl 20 mM aqueous ammonium formate pH 4.5 buffer (AF) containing acetonitrile (20%) prior to analysis by reverse phase liquid chromatography in combination with tandem mass spectrometry (LC MS/MS).
Urine was collected at 2 and 24 hours post administration from pairs of mice in metabolic cages. Urine samples were diluted with AF containing acetonitrile (20%) to give a target analyte concentration within the practical range of the LC MS/MS assay. 30 μl of each diluted sample was placed in an Eppendorf tube (1.5 ml) and an internal standard of daunorubicin (20 μL at 0.5 mg/ml) was added together with 50 μl of AF containing acetonitrile (20%). Each sample was then analyzed by LC MS/MS.
An Agilent HP1100 HPLC with DAD detector and Chemstation software was coupled to a PE Sciex API 365 mass spectrometer with an electrospray ion source. HPLC was performed on a TSK-Gel Super ODS, […], 4.6×50 mm (TosoHaas) reversed phase column equipped with a […] C18 guard disc (Higgins Analytical) and stainless steel frit (Upchurch Scientific). Chromatography was performed at room temperature. The flow rate was 0.5 ml/min. Injection volume was 50 μL. Gradient elution was performed using a mobile phase of 20 mM aqueous AF pH 4.5 buffer with increasing amounts of acetonitrile. The API 365 was operated at 365° C. in a multiple reaction monitoring mode, set to monitor specific analyte parent-daughter ion pairs. Integration of chromatograms was performed by MacQuant software (PE Sciex) and quantitation of each analyte obtained by comparison to previously obtained calibration curves. Daunorubicin was used as an internal standard in all cases.
For the calculation of percent of administered dose, plasma volume was estimated to be 40% of blood volume, which was calculated as 7% of animal's body weight. At 2 and 24 hours the parent compound was detected in urine at 3.9% and 15.0% of the administered dose, showing that the kidney is a major organ of excretion for the prodrug (FIG. 17).
Plasma samples were obtained at 1 and 4 hours from separate mice. Urine was collected at 2 and 24 hours post administration from pairs of mice in metabolic cages. The plasma and urine samples were prepared and analyzed as described in Example 17.

[14] = tested on: BALL-1 cells (CD10neg); test: cells; conditions: 24 h
Method: as §3, §2

[15] = 40 mg/kg every 7 days for 5 doses
[16] = 67 mg/kg every 7 days for 5 doses

COc1cccc2c1C(=O)c1c(O)c3c(c(O)c1C2=O)C[C@@](O)(C(=O)CO)C[C@@H]3O[C@H]1C[C@H](NC(=O)CNC(=O)[C@H](C)NC(=O)[C@H](CC(C)C)NC(=O)CCC(=O)O)[C@H](O)[C@H](C)O1 [Suc-Leu-Ala-Gly-Dox]
% hydrolysis/10 hr ([1]; 12.5 μg/mL, 37° C., pH 7.4, product Leu-doxorubicin): 0 % hydrolysis/10 hr
Fraction hydrolyzed relative to standard ([1]; standard Suc-βAla-Leu-Ala-Leu-Dox): 0
Ratio PC-3:LNCaP [2]: 3
Ratio Ball-1:Ramos ([3]; ratio of IC50): 1
Ratio Ball-1:Namalwa [4]: 1
Tumor Weight (mg) D12 ([5]; Dose 110 mg/kg (Table 19), Q7DX5): D12: 795 ± 177 (n = 7) mg
Toxicity (Weight Loss >25%) ([5]; Dose 110 mg/kg (Table 19), Q7DX5, mice affected/total): 1/7
Tumor Growth Inhibition (% over control) ([5]; mouse, in vivo, 110 mg/kg): 1.4%
% TGI (Day 14, mean) [6, 15]: 4.0%
% TGI (Day 25, median) [6, 15]: 37.2%
Calculated Mean Day of Survival [6, 15]: 39 days and 38.8 ± 6.6 days
Mean Tumor Weight at Day 14 [6, 15]: 704 ± 92 mg
Median Tumor Weight at Day 25 [6, 15]: 952 mg
Number of Long Term Survivors [6, 15]: 1/7
Toxicity (Weight Loss >20%) [6, 15]: 0/7
% TGI (Day 14, mean) [6, 16]: 33.2%*
% TGI (Day 25, median) [6, 16]: 43.5%
Calculated Mean Day of Survival [6, 16]: 41 days and 41.3 ± 7.2 days
Mean Tumor Weight at Day 14 [6, 16]: 490 ± 124 mg
Median Tumor Weight at Day 25 [6, 16]: 857 mg
Number of Long Term Survivors [6, 16]: 3/7
Toxicity (Weight Loss >20%) [6, 16]: 0/7
% Weight Loss at the end of study ([7]; 110 mg/kg Q6DX2): 80%
Time: 50% Weight Loss ([7]; 110 mg/kg Q6DX2): 33 days
% Weight Loss at the end of study ([7]; 132 mg/kg Q6DX2): 80%
Time: 50% Weight Loss ([7]; 132 mg/kg Q6DX2): 29 days
Conversion rate to Leu-Dox or Gly-Dox [8]: 0.06 mM/h
Percent Conversion/Hour to Leu-Dox or Gly-Dox [8]: 0.57 Percent Conversion/Hour
Conversion rate to Leu-Dox or Gly-Dox [9]: 0.06 mM/h
Percent Conversion/Hour to Leu-Dox or Gly-Dox [9]: 0.61 Percent Conversion/Hour
TGI D22 ([10]; 110 mg/kg (70 Dox equi) Q7D × 3): 39.7±29.5%
Survivor D36 ([10]; 110 mg/kg Q7D × 3, N 8): D36: 6*
Toxic Endpoint ([10]; 110 mg/kg Q7D × 3, >20% body weight loss): 0
Cancer Endpoint ([10]; 110 mg/kg Q7D × 3, tumors reaching 1000 mg): 2
AUC(0-t) [11]: 310 µM·h
Plasma AUC0-6 hr of AL-Dox or AG-Dox* [12]: 2.1 µM·h
Plasma AUC0-6 hr of L-Dox or G-Dox* [12]: 0.9 µM·h

COc1cccc2c1C(=O)c1c(O)c3c(c(O)c1C2=O)C[C@@](O)(C(=O)CO)C[C@@H]3O[C@H]1C[C@H](NC(=O)[C@H](CC(C)C)NC(=O)[C@H](C)N)[C@H](O)[C@H](C)O1 [Ala-Leu-Dox]
Plasma (% adm. dose) 1 hr [13]: 0.00 % adm. dose
Plasma (% adm. dose) 4 hr [13]: 0.00 % adm. dose
dose excreted ([13]; Urine (% adm. dose) 2 hr): 0%
dose excreted ([13]; Urine (% adm. dose) 24 hr): 0%

COc1cccc2c1C(=O)c1c(O)c3c(c(O)c1C2=O)C[C@@](O)(C(=O)CO)C[C@@H]3O[C@H]1C[C@H](NC(=O)[C@H](CC(C)C)NC(=O)[C@H](Cc2ccc(O)cc2)NC(=O)[C@H](CC(C)C)NC(=O)CCC(=O)O)[C@H](O)[C@H](C)O1 [Suc-Leu-Tyr-Leu-Dox]
IC50 [14]: 17 µM
IC50 ([3]; 24 h): 20 µM

COc1cccc2c1C(=O)c1c(O)c3c(c(O)c1C2=O)C[C@@](O)(C(=O)CO)C[C@@H]3O[C@H]1C[C@H](NC(=O)[C@@H](N)CC(C)C)[C@H](O)[C@H](C)O1 [Leu-Dox]
dose excreted ([13]; Urine (% adm. dose) 2 hr): 1.17%
dose excreted ([13]; Urine (% adm. dose) 24 hr): 2.25%
